Measurements reported in the supplement of paper PMC10331698.
± gives the standard deviation of the averaged measurements.

Tests used:
Assay in all cases: level (log10 ratio to DMSO vehicle control); higher = higher biomarker level / cell amount than vehicle control
[1] = compound: C=C(C)C(=O)OCCC(F)(F)C(F)(F)C(F)(F)C(F)(F)C(F)(F)C(F)(F)C(F)(F)C(F)(F)F [8:2 Fluorotelomer methacrylate] (in DMSO)
Protocol: (§1)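 BioMAP Diversity Plus panel of 12 human primary cell co-culture systems (3C, 4H, LPS, SAg, BT, BF4T, BE3C, CASM3C, HDF3CGF, KF3CT, MyoF, Mphg). Compounds were added 1 h before stimulation and left for 24 h (MyoF 48 h; BT 72 h for soluble read-outs or 6 d for IgG). Biomarkers were read by ELISA, cytotoxicity by SRB, PBMC viability and proliferation by Alamar Blue. Each well value was divided by the mean of 8 DMSO control wells on the same plate and log10 transformed; duplicate blinded samples were tested at 4 concentrations.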

Perfluorononanoic acid = compound: O=C(O)C(F)(F)C(F)(F)C(F)(F)C(F)(F)C(F)(F)C(F)(F)C(F)(F)C(F)(F)F [Perfluorononanoic acid] (in DMSO)
Protocol: as §1

[2] = compound: O=C(O)C(F)(F)C(F)(F)C(F)(F)OC(F)(F)F [Perfluoro(4-methoxybutanoic) acid] (in DMSO)
Protocol: as §1

[3] = compound: O=C(O)C(F)(OC(F)(F)C(F)(F)C(F)(F)F)C(F)(F)F [Ammonium perfluoro-2-methyl-3-oxahexanoate] (in Water)
Protocol: as §1

[4] = compound: O=C(O)C(F)(OC(F)(F)C(F)(OC(F)(F)C(F)(OC(F)(F)C(F)(F)C(F)(F)F)C(F)(F)F)C(F)(F)F)C(F)(F)F [Perfluoro-(2,5,8-trimethyl-3,6,9-trioxadodecanoic)acid] (in DMSO)
Protocol: as §1

[5] = compound: O=S(=O)(O)C(F)(F)C(F)(F)C(F)(F)C(F)(F)C(F)(F)C(F)(F)C(F)(F)F [Perfluoroheptanesulfonic acid] (in DMSO)
Protocol: as §1

[6] = compound: O=S(=O)(O)C(F)(F)C(F)(F)OC(F)(F)C(F)(F)F [Perfluoro(2-ethoxyethane)sulfonic acid] (in DMSO)
Protocol: as §1

Test System | level (log10) ([1]; 6700 nM) | level (log10) ([1]; 20000 nM) | level (log10) (Perfluorononanoic acid; 6700 nM) | level (log10) (Perfluorononanoic acid; 20000 nM) | level (log10) ([2]; 6700 nM) | level (log10) ([2]; 20000 nM) | level (log10) ([2]; 60000 nM) | level (log10) ([3]; 6700 nM) | level (log10) ([3]; 20000 nM) | level (log10) ([3]; 60000 nM) | level (log10) ([4]; 1100 nM) | level (log10) ([4]; 3300 nM) | level (log10) ([4]; 10000 nM) | level (log10) ([5]; 1500 nM) | level (log10) ([5]; 4400 nM) | level (log10) ([5]; 13000 nM) | level (log10) ([5]; 40000 nM) | level (log10) ([6]; 6700 nM) | level (log10) ([6]; 20000 nM) | level (log10) ([6]; 60000 nM)
HDF3CGF:CCL2/MCP-1 | -0.0095 ± 0.016 | -0.012 ± 0.023 | 0.0235 ± 0.074 | -0.056 ± 0.055 | 0.0035 ± 0.035 | 0.012 ± 0.018 | 0.019 ± 0.064 | 0.011 ± 0.025 | 0.0285 ± 0.0021 | 0.019 ± 0.0028 | -0.0035 ± 0.016 | -0.0365 ± 0.005 | -0.01 ± 0.0042 | 0.006 | 0.0055 ± 0.0035 | 0.005 ± 0.014 | 0.021 ± 0.038 | 0.014 ± 0.0057 | 0.0175 ± 0.0078 | 0.035 ± 0.031
HDF3CGF:CD54/ICAM-1 | 0.0035 ± 0.021 | 0.0055 ± 0.013 | -0.031 ± 0.0099 | -0.033 ± 0.011 | -0.0185 ± 0.0078 | -0.0275 ± 0.0064 | -0.0215 ± 0.0092 | -0.0075 ± 0.015 | -0.0245 ± 0.005 | -0.0555 ± 0.012 | -0.001 ± 0.0057 | -0.0015 ± 0.012 | 0.011 ± 0.031 | 0.0035 ± 0.035 | -0.007 ± 0.028 | 0.0075 ± 0.023 | -0.0165 ± 0.039 | -0.0185 ± 0.0035 | -0.0205 ± 0.00071 | -0.012 ± 0.018
HDF3CGF:CD106/VCAM-1 | -0.0105 ± 0.013 | -0.052 ± 0.064 | -0.02 ± 0.034 | -0.0225 ± 0.022 | -0.01 ± 0.027 | -0.0185 ± 0.011 | -0.036 ± 0.059 | -0.039 ± 0.021 | -0.044 ± 0.027 | -0.131 ± 0.016 | 0.001 ± 0.017 | -0.03 ± 0.021 | -0.0385 ± 0.07 | -0.0245 ± 0.039 | -0.024 ± 0.0042 | -0.0585 ± 0.0064 | -0.101 ± 0.0092 | -0.01 ± 0.05 | -0.0365 ± 0.09 | -0.016 ± 0.073
HDF3CGF:CXCL8/IL-8 | -0.0045 ± 0.0035 | -0.0025 ± 0.023 | -0.0065 ± 0.0064 | -0.001 ± 0.0099 | 0.005 ± 0.0057 | 0.0015 ± 0.00071 | 0.008 | -0.0135 ± 0.015 | 0.001 ± 0.011 | 0.0045 ± 0.0035 | 0.0005 ± 0.00071 | 0 ± 0.0071 | 0.004 ± 0.0014 | 0.0125 ± 0.005 | -0.0115 ± 0.005 | 0.008 ± 0.0042 | 0.0065 ± 0.026 | -0.015 ± 0.0028 | -0.0075 ± 0.0064 | 0.0045 ± 0.0035
HDF3CGF:CXCL9/MIG | -0.024 ± 0.0042 | -0.0275 ± 0.016 | -0.04 ± 0.016 | -0.074 ± 0.02 | -0.0085 ± 0.0035 | 0.0025 ± 0.0064 | -0.005 ± 0.037 | -0.011 ± 0.028 | -0.02 ± 0.014 | -0.016 ± 0.064 | -0.0165 ± 0.005 | 0.005 ± 0.0057 | -0.023 ± 0.02 | -0.0075 ± 0.019 | -0.008 ± 0.013 | -0.0275 ± 0.011 | -0.0505 ± 0.042 | 0.004 ± 0.0057 | 0.002 ± 0.0042 | -0.0055 ± 0.005
HDF3CGF:CXCL10/IP-10 | -0.029 ± 0.021 | -0.0425 ± 0.005 | -0.019 ± 0.024 | -0.061 ± 0.016 | 0.0145 ± 0.016 | -0.004 ± 0.0042 | -0.004 ± 0.0099 | 0.002 ± 0.013 | -0.0085 ± 0.00071 | -0.0025 ± 0.012 | 0 ± 0.0085 | -0.01 ± 0.0085 | 0.0185 ± 0.026 | 0.0115 ± 0.036 | -0.0195 ± 0.025 | -0.042 ± 0.042 | -0.0805 ± 0.00071 | 0.0105 ± 0.033 | -0.0145 ± 0.05 | -0.0105 ± 0.056
